Measurements reported in the kinase profiling compilation of Christmann-Franck et al. (2016).

Tests used:
Assay in all cases: KINOMEscan competition binding
Conditions in all cases: compound 10.0 µM
MAP3K2 (human) = MAP3K2 (human) (UniProt Q9Y2U5)
TRPM6 (human) = TRPM6 (human) (UniProt Q9BX84)
ICK (human) = ICK (human) (UniProt Q9UPZ9)
CDK4 CCND1 (human) = CDK4 CCND1 (human) (UniProt P11802+P24385)
MTOR (human) = MTOR (human) (UniProt P42345)
BTK (human) = BTK (human) (UniProt Q06187)
[1] = test system: EGFR (human), P00533 [G719S]
DDR1 (human) = DDR1 (human) (UniProt Q08345)
MYLK3 (human) = MYLK3 (human) (UniProt Q32MK0)
TBK1 (human) = TBK1 (human) (UniProt Q9UHD2)
KIT (human) = KIT (human) (UniProt P10721)
CDKL1 (human) = CDKL1 (human) (UniProt Q00532)
CDKL1 (human), sequence (Q00532 whole entry, looked up): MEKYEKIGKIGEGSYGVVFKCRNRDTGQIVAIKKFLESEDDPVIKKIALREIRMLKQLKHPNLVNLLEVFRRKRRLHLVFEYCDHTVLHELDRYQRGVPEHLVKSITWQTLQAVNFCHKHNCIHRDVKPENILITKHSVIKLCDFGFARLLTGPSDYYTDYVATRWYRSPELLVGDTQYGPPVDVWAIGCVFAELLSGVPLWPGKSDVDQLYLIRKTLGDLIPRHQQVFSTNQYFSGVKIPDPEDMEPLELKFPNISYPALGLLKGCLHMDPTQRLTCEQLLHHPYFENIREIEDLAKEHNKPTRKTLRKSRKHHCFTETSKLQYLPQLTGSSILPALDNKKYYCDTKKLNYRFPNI

EPHB6 (human) = EPHB6 (human) (UniProt O15197)
PKN3 (M.tuberculosis) = PKN3 (M.tuberculosis) (UniProt Q6P5Z2)
ERN1 (human) = ERN1 (human) (UniProt O75460)
NEK3 (human) = NEK3 (human) (UniProt P51956)
[2] = test system: FLT3 (human), P36888 [K663Q]
HIPK4 (human) = HIPK4 (human) (UniProt Q8NE63)
NEK4 (human) = NEK4 (human) (UniProt P51957)
PIP4K2C (human) = PIP4K2C (human) (UniProt Q8TBX8)
BRAF (human) = BRAF (human) (UniProt P15056)
NIM1 (human) = NIM1 (human) (UniProt Q8IY84)
SIK3 (human) = SIK3 (human) (UniProt Q9Y2K2)
CDK13 (human) = CDK13 (human) (UniProt Q14004)
CDK13 (human), sequence (Q14004 whole entry, looked up): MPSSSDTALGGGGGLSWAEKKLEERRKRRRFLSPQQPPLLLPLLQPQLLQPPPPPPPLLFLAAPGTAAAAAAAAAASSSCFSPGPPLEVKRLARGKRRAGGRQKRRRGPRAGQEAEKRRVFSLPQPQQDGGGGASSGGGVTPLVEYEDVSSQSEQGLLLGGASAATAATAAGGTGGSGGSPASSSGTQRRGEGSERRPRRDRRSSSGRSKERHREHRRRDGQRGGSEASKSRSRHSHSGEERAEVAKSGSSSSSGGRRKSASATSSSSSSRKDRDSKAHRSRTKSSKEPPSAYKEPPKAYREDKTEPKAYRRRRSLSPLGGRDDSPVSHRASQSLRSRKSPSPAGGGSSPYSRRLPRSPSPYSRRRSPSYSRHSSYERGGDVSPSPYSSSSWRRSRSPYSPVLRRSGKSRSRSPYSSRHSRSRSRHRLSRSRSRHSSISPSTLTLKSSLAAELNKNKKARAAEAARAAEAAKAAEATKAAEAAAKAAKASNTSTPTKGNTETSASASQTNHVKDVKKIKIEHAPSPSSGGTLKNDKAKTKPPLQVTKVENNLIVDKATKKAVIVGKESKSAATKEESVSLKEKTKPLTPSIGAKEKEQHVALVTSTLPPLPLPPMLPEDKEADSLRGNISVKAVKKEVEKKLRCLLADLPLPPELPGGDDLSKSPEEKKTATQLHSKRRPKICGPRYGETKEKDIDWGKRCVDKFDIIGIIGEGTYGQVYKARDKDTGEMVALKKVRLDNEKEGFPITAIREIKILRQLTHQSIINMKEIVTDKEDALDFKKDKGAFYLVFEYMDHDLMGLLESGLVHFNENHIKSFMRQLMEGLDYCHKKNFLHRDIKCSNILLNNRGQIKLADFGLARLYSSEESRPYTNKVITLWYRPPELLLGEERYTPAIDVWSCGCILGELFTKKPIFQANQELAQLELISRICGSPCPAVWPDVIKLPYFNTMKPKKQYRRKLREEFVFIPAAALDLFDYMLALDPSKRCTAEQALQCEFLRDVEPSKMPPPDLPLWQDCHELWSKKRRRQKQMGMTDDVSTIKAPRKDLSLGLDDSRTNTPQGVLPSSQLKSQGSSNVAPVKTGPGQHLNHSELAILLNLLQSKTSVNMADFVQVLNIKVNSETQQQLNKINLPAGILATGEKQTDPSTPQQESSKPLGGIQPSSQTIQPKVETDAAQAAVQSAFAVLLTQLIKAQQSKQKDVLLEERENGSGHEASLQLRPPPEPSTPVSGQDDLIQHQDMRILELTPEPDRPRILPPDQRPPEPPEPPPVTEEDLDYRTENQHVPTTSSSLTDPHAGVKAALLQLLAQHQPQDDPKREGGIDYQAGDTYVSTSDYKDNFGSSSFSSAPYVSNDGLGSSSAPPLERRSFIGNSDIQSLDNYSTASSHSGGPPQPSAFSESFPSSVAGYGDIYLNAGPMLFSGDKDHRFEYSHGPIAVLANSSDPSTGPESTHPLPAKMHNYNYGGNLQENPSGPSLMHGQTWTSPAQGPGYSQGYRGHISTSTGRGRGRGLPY

PI4KB (human) = PI4KB (human) (UniProt Q9UBF8)
[3] = test system: EGFR (human), P00533 [746-750 del]
[4] = test system: ABL1 (human), P00519 [E255K]
DYRK1A (human) = DYRK1A (human) (UniProt Q13627)
PRKCI (human) = PRKCI (human) (UniProt P41743)
PRKCI (human), sequence (P41743 whole entry, looked up): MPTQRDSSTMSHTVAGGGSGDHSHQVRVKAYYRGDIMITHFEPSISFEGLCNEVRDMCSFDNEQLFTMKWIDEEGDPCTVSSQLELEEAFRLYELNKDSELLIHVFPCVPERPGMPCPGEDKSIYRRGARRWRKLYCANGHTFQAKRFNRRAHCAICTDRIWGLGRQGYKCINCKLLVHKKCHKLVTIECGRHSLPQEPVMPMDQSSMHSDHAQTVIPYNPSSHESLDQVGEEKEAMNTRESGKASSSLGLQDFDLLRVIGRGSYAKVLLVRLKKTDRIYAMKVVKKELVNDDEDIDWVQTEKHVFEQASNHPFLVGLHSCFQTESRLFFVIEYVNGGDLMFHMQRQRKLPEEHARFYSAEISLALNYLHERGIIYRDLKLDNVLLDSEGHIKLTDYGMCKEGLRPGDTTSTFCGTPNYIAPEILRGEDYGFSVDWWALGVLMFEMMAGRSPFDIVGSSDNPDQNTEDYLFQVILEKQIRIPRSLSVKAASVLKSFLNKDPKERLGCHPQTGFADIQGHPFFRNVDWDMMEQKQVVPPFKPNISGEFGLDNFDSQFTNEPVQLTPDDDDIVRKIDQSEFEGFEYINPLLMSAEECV

CDK4 CCND3 (human) = CDK4 CCND3 (human) (UniProt P11802+P30281)
MAP3K6 (human) = MAP3K6 (human) (UniProt O95382)
MATK (human) = MATK (human) (UniProt P42679)
MAP2K7 (human) = MAP2K7 (human) (UniProt O14733)
MET (human) = MET (human) (UniProt P08581)
LRRK2 (human) = LRRK2 (human) (UniProt Q5S007)
LRRK2 (human), sequence (Q5S007 whole entry, looked up): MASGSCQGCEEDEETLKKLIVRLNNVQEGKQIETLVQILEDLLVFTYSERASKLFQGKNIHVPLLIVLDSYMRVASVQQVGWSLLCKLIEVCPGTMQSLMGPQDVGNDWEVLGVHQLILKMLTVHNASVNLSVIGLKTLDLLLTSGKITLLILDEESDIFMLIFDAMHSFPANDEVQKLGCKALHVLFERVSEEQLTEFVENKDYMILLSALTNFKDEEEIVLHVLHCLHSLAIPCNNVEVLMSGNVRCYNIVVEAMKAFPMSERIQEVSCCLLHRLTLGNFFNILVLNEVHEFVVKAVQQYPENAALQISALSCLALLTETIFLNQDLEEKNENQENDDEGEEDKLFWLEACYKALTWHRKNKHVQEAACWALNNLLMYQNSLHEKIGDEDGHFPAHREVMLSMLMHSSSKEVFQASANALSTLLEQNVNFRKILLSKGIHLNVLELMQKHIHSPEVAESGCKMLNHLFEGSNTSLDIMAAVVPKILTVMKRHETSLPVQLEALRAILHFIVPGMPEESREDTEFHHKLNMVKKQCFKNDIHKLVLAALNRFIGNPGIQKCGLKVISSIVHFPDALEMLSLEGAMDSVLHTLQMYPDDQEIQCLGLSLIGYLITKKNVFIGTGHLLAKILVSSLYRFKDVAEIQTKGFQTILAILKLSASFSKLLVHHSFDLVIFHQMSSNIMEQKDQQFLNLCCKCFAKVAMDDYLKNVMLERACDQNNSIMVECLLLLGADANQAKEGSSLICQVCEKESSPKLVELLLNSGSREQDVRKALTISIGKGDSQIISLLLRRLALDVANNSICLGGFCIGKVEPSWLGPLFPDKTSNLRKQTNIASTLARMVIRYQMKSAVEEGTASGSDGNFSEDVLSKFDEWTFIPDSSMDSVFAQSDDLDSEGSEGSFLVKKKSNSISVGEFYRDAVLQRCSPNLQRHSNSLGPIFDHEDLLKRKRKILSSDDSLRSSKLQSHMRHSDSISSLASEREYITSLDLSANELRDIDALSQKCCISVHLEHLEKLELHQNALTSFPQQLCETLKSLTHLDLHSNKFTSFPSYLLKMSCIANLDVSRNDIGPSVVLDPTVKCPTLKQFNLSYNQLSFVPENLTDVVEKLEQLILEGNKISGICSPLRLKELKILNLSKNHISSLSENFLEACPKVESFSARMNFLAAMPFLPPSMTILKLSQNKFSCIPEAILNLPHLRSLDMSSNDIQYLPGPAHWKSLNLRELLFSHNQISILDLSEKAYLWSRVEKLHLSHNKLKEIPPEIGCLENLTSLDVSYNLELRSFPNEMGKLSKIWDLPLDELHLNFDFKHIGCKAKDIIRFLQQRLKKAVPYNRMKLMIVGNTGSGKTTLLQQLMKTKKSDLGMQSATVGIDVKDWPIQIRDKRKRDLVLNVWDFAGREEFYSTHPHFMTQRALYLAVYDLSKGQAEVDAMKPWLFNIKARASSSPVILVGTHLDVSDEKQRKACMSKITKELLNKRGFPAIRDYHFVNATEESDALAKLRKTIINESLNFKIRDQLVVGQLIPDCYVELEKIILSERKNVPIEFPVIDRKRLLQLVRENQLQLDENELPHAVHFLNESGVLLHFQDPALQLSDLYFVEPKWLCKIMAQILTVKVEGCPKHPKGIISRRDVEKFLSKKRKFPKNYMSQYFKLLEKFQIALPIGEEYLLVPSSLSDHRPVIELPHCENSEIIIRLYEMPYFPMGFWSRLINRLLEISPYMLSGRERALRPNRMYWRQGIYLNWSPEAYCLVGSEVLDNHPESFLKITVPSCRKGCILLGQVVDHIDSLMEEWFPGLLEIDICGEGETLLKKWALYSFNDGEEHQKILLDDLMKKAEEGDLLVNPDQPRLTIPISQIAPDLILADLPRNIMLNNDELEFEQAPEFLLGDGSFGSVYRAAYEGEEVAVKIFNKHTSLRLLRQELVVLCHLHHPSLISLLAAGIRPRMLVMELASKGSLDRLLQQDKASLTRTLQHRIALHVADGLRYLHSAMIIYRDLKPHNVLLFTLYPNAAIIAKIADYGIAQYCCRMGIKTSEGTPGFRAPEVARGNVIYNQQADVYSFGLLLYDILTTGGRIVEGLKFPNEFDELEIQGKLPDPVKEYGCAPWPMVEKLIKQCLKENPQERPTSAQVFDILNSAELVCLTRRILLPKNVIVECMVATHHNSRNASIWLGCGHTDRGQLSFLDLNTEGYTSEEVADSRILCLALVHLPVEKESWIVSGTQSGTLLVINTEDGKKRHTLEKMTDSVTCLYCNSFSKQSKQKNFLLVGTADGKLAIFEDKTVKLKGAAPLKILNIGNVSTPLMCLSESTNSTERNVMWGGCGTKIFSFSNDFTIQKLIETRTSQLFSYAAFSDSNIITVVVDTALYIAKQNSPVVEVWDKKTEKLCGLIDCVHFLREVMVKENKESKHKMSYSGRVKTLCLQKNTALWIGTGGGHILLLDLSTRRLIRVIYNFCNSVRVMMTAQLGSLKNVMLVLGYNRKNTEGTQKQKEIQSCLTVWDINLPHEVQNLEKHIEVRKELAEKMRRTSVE

ROCK1 (human) = ROCK1 (human) (UniProt Q13464)
DYRK2 (human) = DYRK2 (human) (UniProt Q92630)
[5] = test system: PIK3CA (human), P42336 [C420R]
PIK3CG (human) = PIK3CG (human) (UniProt P48736)
[6] = test system: PIK3CA (human), P42336 [E545A]

Compound	kinase still bound, per cent of control (MAP3K2 (human)) [%]	kinase still bound, per cent of control (TRPM6 (human)) [%]	kinase still bound, per cent of control (ICK (human)) [%]	kinase still bound, per cent of control (CDK4 CCND1 (human)) [%]	kinase still bound, per cent of control (MTOR (human)) [%]	kinase still bound, per cent of control (BTK (human)) [%]	kinase still bound, per cent of control (MYLK3 (human)) [%]	kinase still bound, per cent of control (TBK1 (human)) [%]	kinase still bound, per cent of control (CDKL1 (human)) [%]	kinase still bound, per cent of control (EPHB6 (human)) [%]	kinase still bound, per cent of control (PKN3 (M.tuberculosis)) [%]	kinase still bound, per cent of control (ERN1 (human)) [%]	kinase still bound, per cent of control (NEK3 (human)) [%]	kinase still bound, per cent of control [2] [%]	kinase still bound, per cent of control (HIPK4 (human)) [%]	kinase still bound, per cent of control (NEK4 (human)) [%]	kinase still bound, per cent of control (PIP4K2C (human)) [%]	kinase still bound, per cent of control (BRAF (human)) [%]	kinase still bound, per cent of control (NIM1 (human)) [%]	kinase still bound, per cent of control (SIK3 (human)) [%]	further results
Cc1cc([C@@H](C)Nc2ccccc2C(=O)O)c2nc(N3CCOCC3)cc(=O)n2c1	100	100	100	100	11	97	100	100	100	41	98	91	100	13	100	61	58	100	100	95	kinase still bound, per cent of control [1]: 98%; kinase still bound, per cent of control (DDR1 (human)): 100%; kinase still bound, per cent of control (KIT (human)): 91%; kinase still bound, per cent of control (CDK13 (human)): 88%; kinase still bound, per cent of control (PI4KB (human)): 100%; kinase still bound, per cent of control [3]: 100%; kinase still bound, per cent of control [4]: 94%; kinase still bound, per cent of control (DYRK1A (human)): 90%; kinase still bound, per cent of control (PRKCI (human)): 100%; kinase still bound, per cent of control (CDK4 CCND3 (human)): 100%; kinase still bound, per cent of control (MAP3K6 (human)): 95%; kinase still bound, per cent of control (MATK (human)): 96%; kinase still bound, per cent of control (MAP2K7 (human)): 90%; kinase still bound, per cent of control (MET (human)): 86%; kinase still bound, per cent of control (LRRK2 (human)): 100%; kinase still bound, per cent of control (ROCK1 (human)): 73%; kinase still bound, per cent of control (DYRK2 (human)): 89%
O=C(O)c1ccc(Nc2ncc3c(n2)-c2ccc(Cl)cc2C(c2c(F)cccc2F)=NC3)cc1	100	100	86	98	75	28	100	100	100	41	96	100	100	68	31	66	26	100	100	98	kinase still bound, per cent of control [5]: 67%; kinase still bound, per cent of control (PIK3CG (human)): 100%; kinase still bound, per cent of control [6]: 20%; kinase still bound, per cent of control (CDK13 (human)): 100%; kinase still bound, per cent of control (PI4KB (human)): 100%; kinase still bound, per cent of control [3]: 28%; kinase still bound, per cent of control (DYRK1A (human)): 52%; kinase still bound, per cent of control (PRKCI (human)): 100%; kinase still bound, per cent of control (CDK4 CCND3 (human)): 100%; kinase still bound, per cent of control (MAP3K6 (human)): 99%; kinase still bound, per cent of control (MATK (human)): 84%; kinase still bound, per cent of control (MAP2K7 (human)): 100%; kinase still bound, per cent of control (MET (human)): 49%; kinase still bound, per cent of control (LRRK2 (human)): 82%; kinase still bound, per cent of control (ROCK1 (human)): 63%
